Measurements from a melting point compilation (Tetko et al.; mined from patent text by program, amines drawn as free bases though some values may be those of a salt).

CCCN(CCCc1c[nH]c2ccc(F)cc12)C1COc2c(C(N)=O)ccc(F)c2C1 (stereo unspecified) gave a melting point of 123 °C. CCOC(=O)CCCN(C(=O)CC)C(c1ccccc1)c1ccccc1 showed a melting point of 83 to 85 °C. Molecule COC(=O)c1[nH]c2c(C)ccc(C)c2c1Br has a melting point of 173 to 174 °C. In the case of O=c1c2cc(F)c(N3CCCC3)nc2n(-c2ccccc2F)c(=O)n1O, the melting point was > 250 °C. Work on O=C(CC(c1ccccc1)(c1ccccc1)c1ccccc1)Nc1ccc(N2CCNCC2)cc1 yielded a melting point of 193 to 195 °C. With CCCCN1C(=O)CC(C(=O)Nc2nccs2)C(=O)c2ccc(Cl)cc21 (stereo unspecified) the melting point was 238 to 240 °C. With CC(C)(C(=O)O)n1c(=O)[nH]c2cc(Cl)ccc2c1=O the melting point was 260 to 263 °C. With CCn1cccc(C2c3cc(C(=O)OC)ccc3OC(C)(C)C2O)c1=O (stereo unspecified) the melting point was 120 °C. CCN(CC)c1ccc(-c2cc(-c3ccc(C(=O)O)cc3)ccc2OCCCCO)cc1C(C)(C)C gave a melting point of 165 °C. In the case of Cc1cccc(NC(=O)NCC(=O)N2[C@@H](c3ccccc3)CC[C@H]2c2ccccc2)c1, the melting point was 168 °C. CCOC(=O)C(=O)CC(=O)c1cn(Cc2ccc(F)cc2)c2cc(F)ccc2c1=O showed a melting point of 151 to 152 °C. With O=C(NOC1CCCCO1)c1ccc(-c2ccc3ncnc(Nc4ccc(OCc5cccc(F)c5)c(Cl)c4)c3c2)o1 (stereo unspecified) the melting point was 221 °C. O=C(C1CC1)N1CCCc2oc(-c3ccccc3)cc2C1 showed a melting point of 108 to 110 °C. COc1cn(-c2ccc(-n3cc(Cl)cn3)cc2F)nc(-c2ccnn2-c2ccccc2)c1=O gave a melting point of 190 to 192 °C. With Oc1ccc(OCc2ccccc2)cc1F the melting point was 67 °C. In the case of CCc1cc2c(-c3ccccc3Cl)nc(=O)n(C)c2s1, the melting point was 99 °C. CSc1ccc(C(=O)CCC#N)cc1 showed a melting point of 122 to 124 °C. In the case of NNC(=O)NN=Cc1ccc(Cl)cc1, the melting point was 188 to 189 °C. CC(=O)N1CCN(C2CCN(c3ccc(NC(=O)c4cnn(-c5ccc(Cl)cc5)c4C)cc3C#N)CC2)CC1 showed a melting point of 247 °C. In the case of CC(=O)Nc1cnc(Br)c(N)n1, the melting point was 218 to 221 °C. In the case of CC(C)(C(=O)O)c1ccc(OC(F)F)cc1, the melting point was 68.5 to 69.5 °C. Work on CCC1CC(=O)N(Cc2ccc(NC(=O)C(C)C)cc2)N=C1c1ccc(OC)c(OC)c1 (stereo unspecified) yielded a melting point of 144 °C. CCC(C)C(CN[C@@H](Cc1ccccc1)C(=O)OCc1ccccc1)NC(=O)OC(C)(C)C (stereo partly specified) showed a melting point of 53 to 55 °C. Molecule COCc1cccc(C(=O)c2nc(OC)cc(OC)n2)c1[N+](=O)[O-] has a melting point of 111 to 113 °C. With CCCCCCCCCCCCCCc1ccc(C(=O)O)[nH]1 the melting point was 68 to 69 °C. Molecule CC(C)(C)OCCOc1cc(NC(=O)OC(C)(C)C)c(NC(=O)CC(=O)c2cccc(-n3ccnc3)c2)cc1-c1ccc(F)cc1 has a melting point of 101 °C. In the case of COc1ncc(CN2C(=O)C3(COc4cc5c(cc43)OCCO5)c3ccccc32)cn1 (stereo unspecified), the melting point was 102 to 104 °C. With Nc1ccccc1C(=O)C=Cc1ccncc1 the melting point was 168 °C. For CCOc1cccc2c1OC(C(F)(F)F)C(C(=O)O)=C2 (stereo unspecified), the melting point was 159 to 161 °C. Work on CCCCOC(=O)Oc1ccc(-c2ccc(C#N)cc2)cc1 yielded a melting point of 64.8 to 65.7 °C. For NC(=O)c1cc([N+](=O)[O-])c(Cl)cc1N1CC1, the melting point was 155 °C. N=C(N)c1ccc2cc(OC(=O)CCCC3CCCCC3)ccc2c1 showed a melting point of 189 to 193 °C. Molecule O=S1(=O)c2cccc3cccc(c23)N1CCCCN1CC=C(c2ccccc2)CC1 has a melting point of 101 °C. CC1(C)OC(=C(C#N)C#N)C(C#N)=C1c1ccc(Br)cc1 gave a melting point of 235 °C. In the case of COc1cccc(CNC(=O)c2nc3scc(CNC(=O)c4ccc(C(=O)O)cc4)c3c(=O)[nH]2)c1, the melting point was 285 to 286 °C. For CN1CCN(c2ccccc2C=C2CCCN(c3ccc(Cl)c(Cl)c3)C2=O)CC1, the melting point was 138 to 140 °C. CC(=O)N[C@H]1CC[C@H](CCN2CCN(c3nccc4ccoc34)CC2)CC1 gave a melting point of 157 °C. For COc1cc(C(=O)c2ccc(C(F)(F)F)cc2)ccc1O, the melting point was 97 °C. Work on Cc1ccc2onc(-c3ccc(Cl)cc3)c2c1 yielded a melting point of 95 °C. With Cc1cc2c(cc1S(N)(=O)=O)S(=O)(=O)NC(c1cccnn1)=N2 the melting point was 330 to 335 °C. Molecule Cc1sc(Cc2ccc(Br)cc2)c(C(=O)c2ccc(OS(=O)(=O)c3cnn(C)c3)c(C3CCCC3)c2)c1C has a melting point of 55 to 60 °C. O=C1Cc2cc3c(CCC4CCN(Cc5ccc(Br)cc5)CC4)noc3cc2N1 showed a melting point of 177 to 178 °C. With CCCCCCCCCCCCCCCC(=O)Oc1ccc(C(O)C(C)N2CCC(Cc3ccccc3)CC2)cc1 (stereo unspecified) the melting point was 75 to 77 °C. Work on C(=C\c1cccs1)/c1nc(COc2ccc(CCCn3ccnc3)cc2)co1 yielded a melting point of 131 to 132 °C. With NCC(O)(CCc1ccccc1)CCc1ccccc1 the melting point was 104 to 106 °C. For Cc1nc2c3c(ccc2n1C)C(=O)CC(c1ccccc1)O3 (stereo unspecified), the melting point was 201 to 202 °C. COc1cc2c(cc1OC)CN(CCCCNC(=O)c1cc(C)ccc1OCCF)CC2 showed a melting point of 131 to 133 °C. In the case of CCOc1ccc(OCc2ccccc2)c(C(=O)OC)n1, the melting point was 45 to 46 °C. With N#Cc1ccc(C(O)(Cc2ccccc2)Cc2ccccc2)cc1 the melting point was 153 °C. COc1ccccc1-n1c(=O)[nH]c2ccc(-c3cccc(O)c3)nc21 gave a melting point of 240 to 242 °C. For CN(C)C1CCCC(C(=O)N2CCC(c3[nH]nc4c3C(=O)c3c(NC(=O)NN5CCOCC5)cccc3-4)CC2)C1 (stereo unspecified), the melting point was 153 to 155 °C. COc1cc(OC)c2nccc(O)c2c1 showed a melting point of 221 to 224 °C. For NC1=NN(c2cccc(Cl)n2)C(c2ccccc2)C1 (stereo unspecified), the melting point was 188 °C. With CC1(CCC#N)N=C(c2ccc(Cl)cc2)OC1=O (stereo unspecified) the melting point was 97 to 98 °C. For O=c1nc(-c2ccccc2O)oc2ccccc12, the melting point was 206 to 208 °C. For Clc1nsnc1N1CCOCC1, the melting point was 43 to 45 °C. For OC(CNC1CC1)c1cccc(Br)c1 (stereo unspecified), the melting point was 69.5 to 70.4 °C. With Cc1ccc2nc(NC(=O)c3c(Cl)cccc3Cl)cc(NN)c2c1C the melting point was 190 to 198 °C. COc1cc2c(cc1OC)[C@@H]1c3ccc(C)cc3C(=O)N(Cc3ccccc3)[C@H]1CC2 (relative stereo) showed a melting point of 154 to 157 °C. In the case of O=C(O)C(=O)CC(=O)c1ccn(Cc2ccccc2)c1, the melting point was 151 to 152 °C. In the case of CC(C(=O)O)c1cccc(OCCC(=O)O)c1 (stereo unspecified), the melting point was 144 to 146 °C. Work on Cn1c(-c2ccc(C=Cc3ccc(-c4ccccc4)cc3)cc2)cc2ccccc21 yielded a melting point of 254 °C. For CN1C(=O)[C@H](NC(=O)CCc2cccc(C#N)c2)N=C(c2ccccc2)c2ccccc21, the melting point was 110 to 112 °C. CC(C)(C)OC(=O)NCc1ccccc1N gave a melting point of 94 to 95 °C. CCOc1nc(NCc2ccco2)nc(Nc2ccc3nc(C)[nH]c3c2)n1 showed a melting point of 150 to 152 °C. Work on COC(=O)c1[nH]c2ncccc2c1-c1ccc(N)cc1 yielded a melting point of 236 °C. Work on COC(=O)c1cc(/C=N/O)ccc1[N+](=O)[O-] yielded a melting point of 116 °C. Molecule COc1ccc(N2CCOCC2)cc1NC(=S)c1nc2ccc(C)nc2[nH]1 has a melting point of 189 to 191 °C. Molecule CN(C)Cc1csc(N(C)CC#CI)n1 has a melting point of 98 to 100 °C. Molecule Cc1nc2c(N)nc3ccccc3c2n1CCOCCNS(C)(=O)=O has a melting point of 152 to 155 °C. With O=C1CCN(c2nc(=O)c3cccnc3s2)CC1 the melting point was 222 to 225 °C. CCC1(CCCN2CCN(c3ccccn3)CC2)C(=O)Nc2ccccc21 (stereo unspecified) showed a melting point of 122 to 124 °C. Work on CCCCC1(C2CCCC2)Cc2cc(OC)c(Cl)c(Cl)c2C1=O (stereo unspecified) yielded a melting point of 122 to 123 °C. In the case of Cc1noc(NS(=O)(=O)c2ccc(Cl)cc2)c1Br, the melting point was 145 to 150 °C. In the case of O=C1NC(=O)[C@@]2(C[C@@H](C(=O)NCCN3CCN(CC=Cc4ccccc4)CC3)Oc3ccc(F)cc32)N1, the melting point was 133 to 135 °C. Cc1ccc(Oc2ccc(-n3cc(C(=O)O)nn3)cc2)c(O)c1 gave a melting point of 159 to 161 °C. Molecule CS(=O)(=O)Nc1cc(CC(=O)O)cc2c1NC(C(F)(F)F)CC2 (stereo unspecified) has a melting point of 189 to 191 °C. In the case of c1ccc(CC(Cc2ccccc2)(c2nnn[nH]2)c2nnn[nH]2)cc1, the melting point was 228 to 230 °C. Molecule COc1cccc(C(=O)Nc2ccc(-n3nc(C(F)(F)F)cc3C(F)(F)F)cc2)c1 has a melting point of 169 to 172 °C. NC(c1ccccc1)c1ccc(C(N)c2ccc(C(N)c3ccccc3)cc2)cc1 (stereo unspecified) gave a melting point of 182 to 185 °C. For CCC1(O)CC(=O)OCc2c1cc1n(c2=O)Cc2c-1nc1ccccc1c2-c1ccc(C)cc1 (stereo unspecified), the melting point was > 280 °C. With O=c1[nH]c(=O)n(CCCCCl)c2ccccc12 the melting point was 127 to 128 °C. In the case of NC1=NN(c2ccc(Cl)c(Cl)c2)CC1, the melting point was 182 to 184 °C. Molecule O=C(Cc1cccc(C(F)(F)F)c1)NCc1cccc2c1C(=O)N(C1CCC(=O)NC1=O)C2=O (stereo unspecified) has a melting point of 156 to 158 °C. For CC(C)(O)Cn1c(CO)nc2c(N)nc3cccnc3c21, the melting point was 235 to 237 °C. Molecule O=c1[nH]c(=O)n(CCCCCCl)c2ccccc12 has a melting point of 162 to 163 °C. CCCCc1nc(=O)c2cc(I)ccc2[nH]1 showed a melting point of 258 to 260 °C. Work on CSc1ccc(-c2nn(Cc3ccc(Cl)cc3Cl)c(=S)cc2-c2ccc(F)cc2)cc1 yielded a melting point of 154 °C. Work on CC(C)Cn1c(CNC(=O)OC(C)(C)C)c(-c2ccc(F)cc2)c2cc(/C=C/C(N)=O)ccc2c1=O yielded a melting point of 161 to 163 °C. For CN1Cc2c(n(-c3ccc(F)cc3)c3ccc(F)cc23)C1, the melting point was 160 to 165 °C. CCCn1nc(C(C)C)c(C(=O)O)c1Cc1ccc(-c2ccccc2C(=O)O)cc1 showed a melting point of 226 to 230 °C. In the case of NC(=O)N1CCN(c2nn(-c3ccccc3Cl)c3ccccc23)CC1, the melting point was 156 to 158 °C. For CCc1ccccc1NS(=O)(=O)c1ccc(N2CCNC2=O)cc1, the melting point was 171 to 172 °C. For Cc1cc(F)c(N)cc1-n1cc(C(=O)O)c(=O)c2cc(F)c(N)c(C)c21, the melting point was > 240 °C. O=[N+]([O-])c1ccccc1-c1nc2ccccc2n1CC(O)CO (stereo unspecified) showed a melting point of 182 to 183 °C. In the case of CCC1c2ccc(C)n2-c2ccc(F)cc2N1S(=O)(=O)c1ccc(O)c(C)c1 (stereo unspecified), the melting point was 199 to 201 °C. In the case of CN(C)c1nnc(Br)c(=O)[nH]1, the melting point was 261 to 262 °C. Work on N#Cc1ccc(S(=O)(=O)N2CCn3c(c(C(N)=O)c(Cl)c3-c3ccccc3)C2)cc1 yielded a melting point of 205 to 206 °C. For COc1ccc(-c2cc(Cl)cc3c2NC(CN)CO3)c(Cl)c1 (stereo unspecified), the melting point was 105 °C. O=[N+]([O-])c1ccc(CS(=O)(=O)CCO)c(CS(=O)(=O)CCO)c1 showed a melting point of 126 to 128 °C. CCCNC(=O)NNC(=O)c1ccccc1 showed a melting point of 172 to 174 °C.
